Laboratory results published in patent US9023483B2, “Wood preservative compositions useful for treating copper-tolerant fungi” (Arch Timber Protection Limited, priority 2010, dated 2015).

System: Serpula himantioides strain ATCC 64894
Test: EN 113 wood block decay test, Serpula himantioides, 16 weeks
Assay type: cell-based
Description: Five replicates were made per each treatment.
As shown in the above tables, the copper composition contains about 9% by weight copper, while both of the azole compositions contain about 10% by weight azole. The DQA cation was applied to the wood as a solution of 50 weight percent didecyldimethyl ammonium carbonate (DDACarbonate).
The wood samples were exposed for 16 weeks.

Substance: didecyldimethyl ammonium carbonate [DDACarbonate]
- 16 weeks of exposure Average weight loss % of untreated weight loss (Cu retention 0, DDACarbonate retention 0.25 Kg/m^3, 16 weeks): 84%
- 16 weeks of exposure Average weight loss % of untreated weight loss (Cu retention 0, DDACarbonate retention 0.5 Kg/m^3, 16 weeks): 67%
- protection of wood against decay by Serpula himantioides (in words) (summary of the decay tests, 16 weeks): relatively little protection
